For data set [1] the following is noted: for max soluble concentration: in water. From the text:
The solubility of α-2 agonists, in particular, decreases exponentially at an increased pH.

On data set [2], the source says: Oily vehicles such as castor oil solubilize, but these have poor compliance.

Like-named read-outs stand apart in the source and are kept apart here.

On to `Cc1cccc([C@H](C)c2cnc[nH]2)c1C` [dexmedetomidine], for which the max soluble concentration in data set [1] (pH solution 6.0) turned out to be 0.195%; in data set [1] (pH solution 6.4) it was 0.060%; in data set [1] (pH solution 7.0) it was 0.023%; in data set [1] (pH solution 7.4), 0.015%; in data set [1] (pH solution 8.0), 0.013%. For the same compound, in data set [1] (pH of 4.0 to 6.0), the degree of solubility result is on record as “very high degree of solubility”. In addition, the “concentration solubilized in the provided compositions” value in data set [2] is given as ≥ 0.15%.

(Values after US8999938B2, “Ophthalmic lipophilic drug delivery vehicle formulations” (GNT, LLC, priority 2013, dated 2015).)
